Measurements taken from patent publication US8461410B2, “Wound dressing materials comprising complexes of anionic polysaccharides with silver” (Ethicon, Inc., priority 2002, dated 2013).

How the values were obtained:
[1] = system: Staphylococcus aureus; assay: Zone of inhibition test of bactericidal activity (Procedure 1); format: cell-based; details: 2 cm x 2 cm sample on inoculated DSA plate, 37° C., read every 24 hours; FIGS. 1 and 2
Experimental: (§1) Six 2 cm×2 cm squares of each sample were cut out in sterile conditions. On day one of the experiment cultures of both Pseudomonas aeruginosa and Staphylococcus aureus were incubated aerobically at 37° C. for 24 hours on Diagnostic Sensitivity Agar (DSA). After 24 hours test samples were each placed on a DSA plate and were immediately wetted with 0.5 mls of a buffer solution. Three squares of sample were placed on plates inoculated with Pseudomonas aeruginosa and three were placed on plates inoculated with Staphylococcus aureus. The plates were then incubated at 37° C. for 24 hours. The zone of inhibited growth around the sample was then measured using callipers and the test sample was placed on a new inoculated DSA plate. A swab test was carried out on the area beneath the sample to determine if the sample was bacteriostatic if not bactericidal by smearing the swab on a DSA plate and incubating it for 24 hours and then examining the growth. The samples were transferred onto fresh inoculated plates with the above procedure being carried out every 24 hours for 72 hours as long as the samples remain intact.
(§2) As a negative control, a freeze dried sponge of 45% ORC/55% collagen without any silver was tested.

[2] = system: Pseudomonas aeruginosa; assay: as above; format: cell-based; details: 2 cm x 2 cm sample on inoculated DSA plate, 37° C., read every 24 hours; FIG. 3
Experimental: as §1, §2

## O=[N+]([O-])[O-].[Ag+] [silver nitrate solution (0.5%), silver nitrate]
[1]
  bactericidal effect / zone of inhibition against Staphylococcus aureus: zones of inhibition were observed
[2]
  bactericidal effect / zone of inhibition against Pseudomonas aeruginosa: zones of inhibition were observed
